These results are taken from patent US20240228547A1, “POLYPEPTIDE FOR RESISTING NOVEL CORONAVIRUS AND APPLICATION THEREOF” (INSTITUTE OF MICROBIOLOGY, CHINESE ACADEMY OF SCIENCES, priority 2021, published 2024).

The test has as its system pseudovirus of SARS-CoV-2 original strain (SARS-CoV-2 WT). To be noted: for IC50: read-out: IC50, inhibitory effect on pseudovirus, Hela hACE2 cells.

With `CC[C@H](C)[C@H](NC(=O)CNC(=O)[C@H](CO)NC(=O)[C@@H](NC(=O)[C@H](CC(=O)O)NC(=O)CNC(=O)[C@H](Cc1ccccc1)NC(=O)[C@H](CCCCN)NC(=O)[C@@H](N)C(C)C)[C@@H](C)CC)C(=O)N[C@@H](CC(N)=O)C(=O)N[C@@H](C)C(=O)N[C@@H](CO)C(=O)N[C@H](C(=O)N[C@H](C(=O)N[C@@H](CC(N)=O)C(=O)N[C@H](C(=O)N[C@@H](CCCCN)C(=O)N[C@@H](CCC(=O)O)C(=O)N[C@@H](CCC(=O)O)C(=O)N[C@H](C(=O)N[C@@H](CC(=O)O)C(=O)N[C@@H](CCCNC(=N)N)C(=O)N[C@@H](CC(C)C)C(=O)N[C@@H](Cc1ccc(O)cc1)C(=O)N[C@@H](CCC(=O)O)C(=O)N[C@H](C(=O)N[C@H](C(=O)N[C@@H](CCCCN)C(=O)N[C@@H](CC(N)=O)C(=O)N[C@@H](CC(C)C)C(=O)N[C@@H](CC(N)=O)C(=O)N[C@@H](CCC(=O)O)C(=O)N[C@@H](CO)C(=O)N[C@@H](CC(C)C)C(=O)N[C@H](C(=O)N[C@@H](CC(=O)O)C(=O)N[C@@H](CC(C)C)C(=O)N[C@@H](CCC(N)=O)C(=O)N[C@@H](CCC(=O)O)C(=O)N[C@@H](CC(C)C)C(=O)O)[C@@H](C)CC)C(C)C)C(C)C)[C@@H](C)CC)[C@@H](C)CC)C(C)C)C(C)C` [Polypeptide P3-3], the “Increase multiple (fold increase in the inhibitory effect compared to the polypeptide P3)” value is 3.4 and the IC50 was 0.23 µM.

With `CC[C@H](C)[C@H](N)C(=O)N[C@@H](CO)C(=O)NCC(=O)N[C@H](C(=O)N[C@@H](CC(N)=O)C(=O)N[C@@H](C)C(=O)N[C@@H](CO)C(=O)N[C@H](C(=O)N[C@H](C(=O)N[C@@H](CC(N)=O)C(=O)N[C@H](C(=O)N[C@@H](CCCCN)C(=O)N[C@@H](CCC(=O)O)C(=O)N[C@@H](CCC(=O)O)C(=O)N[C@H](C(=O)N[C@@H](CC(=O)O)C(=O)N[C@@H](CCCNC(=N)N)C(=O)N[C@@H](CC(C)C)C(=O)N[C@@H](CC(N)=O)C(=O)N[C@@H](CCC(=O)O)C(=O)N[C@H](C(=O)N[C@@H](C)C(=O)N[C@@H](CCCCN)C(=O)N[C@@H](CC(N)=O)C(=O)N[C@@H](CC(C)C)C(=O)N[C@@H](CC(N)=O)C(=O)N[C@@H](CCC(=O)O)C(=O)N[C@@H](CO)C(=O)N[C@@H](CC(C)C)C(=O)N[C@H](C(=O)N[C@@H](CC(=O)O)C(=O)N[C@@H](CC(C)C)C(=O)N[C@@H](CCC(N)=O)C(=O)N[C@@H](CCC(=O)O)C(=O)N[C@@H](CC(C)C)C(=O)O)[C@@H](C)CC)C(C)C)[C@@H](C)CC)[C@@H](C)CC)C(C)C)C(C)C)[C@@H](C)CC` [Polypeptide P3-4], the “Increase multiple (fold increase in the inhibitory effect compared to the polypeptide P3)” value is 3.3 and the 50% inhibitory concentration (IC50) came to 0.24 µM.

As to `CC[C@H](C)[C@H](N)C(=O)N[C@@H](CO)C(=O)NCC(=O)N[C@H](C(=O)N[C@@H](CC(N)=O)C(=O)N[C@@H](C)C(=O)N[C@@H](CO)C(=O)N[C@H](C(=O)N[C@H](C(=O)N[C@@H](CC(N)=O)C(=O)N[C@H](C(=O)N[C@@H](CCC(N)=O)C(=O)N[C@@H](CCCCN)C(=O)N[C@@H](CCC(=O)O)C(=O)N[C@H](C(=O)N[C@@H](CC(=O)O)C(=O)N[C@@H](CCCNC(=N)N)C(=O)N[C@@H](CC(C)C)C(=O)N[C@@H](CC(N)=O)C(=O)N[C@@H](CCC(=O)O)C(=O)N[C@H](C(=O)N[C@@H](C)C(=O)N[C@@H](CCCCN)C(=O)N[C@@H](CCC(=O)O)C(=O)N[C@@H](CC(C)C)C(=O)N[C@@H](CC(N)=O)C(=O)N[C@@H](CCC(=O)O)C(=O)N[C@@H](CO)C(=O)N[C@@H](CC(C)C)C(=O)N[C@H](C(=O)N[C@@H](CC(=O)O)C(=O)N[C@@H](CC(C)C)C(=O)N[C@@H](CCC(N)=O)C(=O)N[C@@H](CCC(=O)O)C(=O)N[C@@H](CC(C)C)C(=O)O)[C@@H](C)CC)C(C)C)[C@@H](C)CC)[C@@H](C)CC)C(C)C)C(C)C)[C@@H](C)CC` [Polypeptide P3-5], the “Increase multiple (fold increase in the inhibitory effect compared to the polypeptide P3)” value was determined as 0.5 and the concentration for half-maximal inhibition (IC50) amounted to 1.59 µM.
